System: PSMA+HEK cells
Experiment: Luminescence ADCC reporter (CD16α activation) assay with mmAb
Format: cell-based, human
Settings: antibody 10^−7-10^−9 M
Procedure: Covalent vs. non-covalent antibody recruitment were compared in functional immune assays. Activation of NK cell CD16α immune receptors was assessed via luminescence based ADCC assays. ADCC was quantified using the ADCC Reportor Bioassay kit (Promega G7010). All ADCC induced luminescence was measured on a SpectraMax i3 plate reader (Molecular Devices). The human IgG isotype control used was purchased from Jackson ImmunoResearch (009-000-003). The human IgG1 monoclonal anti-DNP antibody (mAb) was purchased from Acrobiosystems (DNP-M2). Human IgG from serum was purchased from Innovative Research ([…]1000MG). Anti-DNP depleted serum was made from human IgG from serum (Innovative Research). For PSMA competition controls, 2-PMPA was purchased from Sigma (SML1612). Hek-293T (PSMA+/−) cell lines were generously given by Dr. Cyril Barinka (Institute of Biotechnology CAS, Czech Republic). Ultra low IgG FBS was purchased from Fischer Scientific (A3381901). RPMI-1640 was purchased as a powder from Fischer Scientific (31800089) and resuspended. DMEM was purchased as a powder from Fischer Scientific (12800082) and resuspended. Pen/Strep was purchased from Fischer Scientific (15140-122). FBS was purchased from Fischer Scientific (12484-028). Zeocin was purchased from Fischer Scientific (R25001). HEK-PSMA cells were cultured in DMEM media with 2 mM L-glut, 1% Pen/Strep, 10% FBS, 50 ug/mL Zeocin. HEK cells were cultured in DMEM media with 2 mM L-glut, 1% Pen/Strep, 10% FBS.
Preparation of antibody-CIR/ARM stocks were mixed overnight prior to addition to the ADCC plate. In the case of mmAb and mAb, incubation was carried out at 600 nM antibody and 1.2 μM CIR or ARM. In the case of IgG from serum, incubation was completed at 230 μM antibody and 8.7 μM CIR or ARM. In all cases, DMSO was kept close to 1%. After the overnight incubation, a dilution series was completed on the antibody-CIR/ARM stocks in RPMI (1% DMSO). […] 75 μL of Bio-Glo Luciferase Assay Reagent was added to each well, and luminescence was quantified using the SpectraMax i3 plate reader. […]

Row | SMILES | CD16α based target immune recognition
1 | O=C(O)CC[C@H](NC(=O)N[C@@H](CCCCNC(=O)NCCOCCOCCOCCOCCOCCOCCOCCOC(=O)n1cnc(CCn2cc(CNc3ccc([N+](=O)[O-])cc3[N+](=O)[O-])nn2)c1)C(=O)O)C(=O)O [CIR 5] | robust target immune recognition
2 | O=C(O)CC[C@H](NC(=O)N[C@@H](CCCCNC(=O)NCCOCCOCCOCCOCCOCCOCCOCCOC(=O)NCCOCCn1cc(CNc2ccc([N+](=O)[O-])cc2[N+](=O)[O-])nn1)C(=O)O)C(=O)O [ARM 12, reference compound] | largely unable to mediate immune recognition of target HEK cells
